Measurements from paper PMC12403558, “Novel enzymes involved in the biotransformation of oxytetracycline by Arthrobacter nicotianae OTC-16” (Microbiology Spectrum, 2025).

Key:
[1] = molecular target: T1, uaZ (Glutamicibacter nicotianae, UniProt A0ABQ0RHS3); assay: OTC depletion by HPLC after adding […] mg expressed protein extract; format: biochemical; conditions: LB broth without strain OTC-16, 30 C, 180 rpm, 4 days, product not identified, not described as purified
T1 construct: gene ANI01nite_05670; E. coli BL21(DE3) soluble extract, no purification described; about 34 kDa; primers encode N-term MTTEITAPAD, C-term IWANIPAFI

[2] = molecular target: T2, prpD (Glutamicibacter nicotianae, UniProt A0ABQ0RQ59); assay: as above; format: biochemical; conditions: LB broth without strain OTC-16, 30 C, 180 rpm, 4 days, product not identified, not described as purified
T2 construct: gene ANI01nite_31520; E. coli BL21(DE3) soluble extract, no purification described; about 55 kDa; primers encode N-term MINHPVR, C-term PKGLF
T2 sequence (A0ABQ0RQ59 entry or part of it): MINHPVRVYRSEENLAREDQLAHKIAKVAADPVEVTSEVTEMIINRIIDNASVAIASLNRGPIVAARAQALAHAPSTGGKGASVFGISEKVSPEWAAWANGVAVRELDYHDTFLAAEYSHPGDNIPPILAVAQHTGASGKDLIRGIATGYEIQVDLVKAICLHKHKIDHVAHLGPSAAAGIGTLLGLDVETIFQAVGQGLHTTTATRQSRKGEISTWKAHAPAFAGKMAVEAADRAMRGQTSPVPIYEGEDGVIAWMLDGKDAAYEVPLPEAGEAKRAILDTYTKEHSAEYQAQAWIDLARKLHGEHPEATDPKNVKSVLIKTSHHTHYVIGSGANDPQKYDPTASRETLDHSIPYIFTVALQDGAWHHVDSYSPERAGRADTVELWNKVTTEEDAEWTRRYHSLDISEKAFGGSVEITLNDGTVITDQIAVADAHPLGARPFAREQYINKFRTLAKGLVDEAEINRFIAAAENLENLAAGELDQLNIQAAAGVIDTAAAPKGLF

T1 sequence (A0ABQ0RHS3 entry or part of it): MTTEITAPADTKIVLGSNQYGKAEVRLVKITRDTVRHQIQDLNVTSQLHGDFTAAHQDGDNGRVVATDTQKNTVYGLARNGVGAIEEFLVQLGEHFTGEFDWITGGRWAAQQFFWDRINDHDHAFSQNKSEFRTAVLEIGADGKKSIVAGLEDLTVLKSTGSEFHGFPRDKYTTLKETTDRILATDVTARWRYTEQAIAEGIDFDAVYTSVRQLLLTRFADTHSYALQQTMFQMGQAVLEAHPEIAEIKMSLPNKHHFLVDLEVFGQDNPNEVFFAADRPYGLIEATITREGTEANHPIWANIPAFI

**Q.** For `CN(C)[C@@H]1C(=O)C(C(N)=O)=C(O)[C@@]2(O)C(=O)C3=C(O)c4c(O)cccc4[C@@](C)(O)[C@H]3[C@H](O)[C@@H]12` [oxytetracycline], which “OTC depletion by HPLC after adding 0.1 mg expressed protein extract” value [1] is on record?
**A.** The value was “the degradation proteins prpD and uaZ exhibited degradation effects on OTC”.

**Q.** What about the “OTC depletion by HPLC after adding 0.1 mg expressed protein extract” value [2] of the same compound?
**A.** The value was “the degradation proteins prpD and uaZ exhibited degradation effects on OTC”.
